Test [1] addresses T1, 5FW LecA (Pseudomonas aeruginosa, UniProt Q05097).
T1 construct: made in house; host or cells: Escherichia coli BL21 (DE3), plasmid pET25pa1l, grown with 5-fluoroindole
Put plainly: PrOF NMR titration of ligands to 5FW LecA (W42 peak intensity). It counts as binding. The procedure:
All experiments were conducted on Bruker Ascend™700 (AvanceIII HD) spectrometer equipped with a 5 mm TCI700 CryoProbe™ in 3 mm tubes (Norell S-3-800-7) with following parameters: time domain of 1972, relaxation delay 1 s, acquisition time of 0.15 s, spectral width of 10 p.p.m. and 1024 scans resulting in measurement time of 20 minutes.
The decreasing intensity of the unbound W42 in 5FW LecA was followed to determine Kd values of ligands. Here, we used these values to normalize the changes in W42 peak intensities (Inormalized) following the equation (1) resulting in values plotted on Y-axis.(1) where I0 was unbound W42 in the reference spectrum of protein only, Imeasured was unbound W42 peak of protein with a ligand. The Kd values were calculated according to the one-site-binding model in GraphPad Prism 8 (GraphPad Software Inc., San Diego, CA) from three independent titrations.

In test [2] the target is T2, LecA (Pseudomonas aeruginosa, UniProt Q05097).
T2 construct: made in house; host or cells: Escherichia coli BL21 (DE3) (inferred from the yield comparison; no protocol of its own is printed for the unlabelled protein)
Briefly: Isothermal titration calorimetry of Ca2+ to apo LecA. It counts as binding. The conditions noted are these: unlabeled apo LecA, TBS pH 7.4, 25°C; read-out: Kd (ITC). The method, then:
ITC was performed on a Microcal ITC200 (General Electric) at 25°C. Calcium ions were removed by extensive dialysis against 1 mM EDTA pH 7.4 (×4) followed by 150 mM NaCl (×4) and distilled water. The protein solution was lyophilized and the solid protein stored at −20°C. A solution of calcium chloride in TBS (20 mM Tris, 137 mM NaCl, 2.6 mM KCl at pH 7.4) was titrated into a calcium-free LecA solution in the same buffer. The data were analyzed according to the one-site-binding model using Microcal Origin software. Four independent titrations were performed using CaCl2 and LecA between 2 and 3 mM and 170 and 200 μM, respectively.
(In general: In ITC the heat of successive injections is recorded.)

Test [3] addresses T2, LecA. Put plainly: Competitive binding fluorescence polarization assay with LecA. The method, then:
(§1) The competitive binding assay was performed as reported previously ([Joachim et al. 2016]). In total, 10 μL of LecA (40 μM) and meta-linked fluorescein-conjugate of phenyl-galactopyranoside (20 nM) in TBS pH 7.4 supplemented with 1 mM CaCl2 (TBS/Ca^2+) and 10 μL of compound-dilution series (8 mM to 62 μM, 8% DMSO) in TBS/Ca^2+ buffer were mixed in a 384-well plate (Greiner Bio-One, Germany) in three technical replicates. The sealed plate was centrifuged at 300 g for 1 min and incubated at room temperature with shaking. […] Polarization was calculated and the data were analyzed according to the four-parameter variable slope model (MARS Data Analysis Software, BMG Labtech GmbH, Germany), the top and bottom plateaus were determined from the control Me-α-D-Gal and data were reanalyzed with these values fixed.
For orientation: Polarisation of emitted light reports the rotation of a fluorescent probe.

Test [4] concerns the target T1, 5FW LecA. Briefly: Competitive binding fluorescence polarization assay with 5FW LecA. The procedure:
as §1

In test [5] the target is T2, LecA. To be noted: ref Cioci et al. 2003; cited from earlier work.
Test [6] has as its target T2, LecA. The conditions noted are these: cited from earlier work; for affinity improvement compared to galactose: reported Kd values, ref Kadam, et al. 2011, Rodrigue, et al. 2013.

Like-named read-outs stand apart in the source and are kept apart here.

T2 sequence (Q05097 whole entry): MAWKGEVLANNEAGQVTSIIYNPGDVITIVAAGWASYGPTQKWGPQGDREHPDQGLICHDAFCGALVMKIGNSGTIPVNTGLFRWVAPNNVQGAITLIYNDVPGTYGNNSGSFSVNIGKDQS
T1 sequence (Q05097 2-122): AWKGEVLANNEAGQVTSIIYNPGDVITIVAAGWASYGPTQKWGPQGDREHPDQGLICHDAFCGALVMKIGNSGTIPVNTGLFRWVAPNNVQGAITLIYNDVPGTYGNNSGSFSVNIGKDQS

As to `[Ca+2]` [Ca^2+, calcium (II) ion], the Kd was determined as 47 ± 8 µM in test [1] (100 μM apo 5FW LecA, MES pH 6, 310 K, one-site-binding model, three independent titrations, listed as Ca2+, read-out: Kd (PrOF NMR, Ca2+ titration)); 478 µM in test [1] (100 μM apo 5FW LecA, MES pH 6, 310 K, one-site-binding model, three independent titrations, read-out: Kd (PrOF NMR, Ca2+ titration)); 60 ± 20 µM in test [2].

Consider `O=C[C@H](O)[C@@H](O)[C@@H](O)[C@H](O)CO` [D-Gal, D-galactose], for which the Kd is 360 µM in test [1] and 29 µM in test [5]. The values for the IC50 in test [3] and in test [4] were 330 ± 40 µM and 317 µM, respectively.

In test [1], `CC(=O)N[C@H]1C(O)O[C@H](CO)[C@H](O)[C@@H]1O` (stereo partly drawn) [D-GalNAc, N-acetyl D-galactosamine] gave a Kd of 780 ± 97 µM. The figures for the IC50 in test [3] and in test [4] were 1230 ± 200 µM and 1990 µM, respectively. In addition, the “IC50 (FP-based assay) higher compared with Kd from PrOF NMR” value in test [4] (5FW LecA) is reported as 3 fold.

Take `CC(C)C[C@H](NC(=O)[C@@H]1CCCN1C(=O)[C@H](CCCCN)NC(=O)c1ccc(O[C@@H]2O[C@H](CO)[C@H](O)[C@H](O)[C@H]2O)cc1)C(N)=O` [GalAG0]: the Kd in test [6] (ref Kadam et al. 2011, Kadam et al. 2013, Rodrigue et al. 2013) was 4.2 µM.

With `OC[C@H]1O[C@@H](Oc2ccccc2)[C@H](O)[C@@H](O)[C@H]1O` [Ph-β-D-Gal, phenyl-β-D-galactopyranoside], the Kd in test [1] (100 μM holo 5FW LecA, TBS pH 7.8, 310 K, one-site-binding model, three independent titrations, read-out: Kd (PrOF NMR)) was 166 ± 42 µM.

As to `OC[C@H]1O[C@@H](Sc2ccc3ccccc3c2)[C@H](O)[C@@H](O)[C@H]1O` [naphthyl β-thio-D-galactoside], the Kd in test [6] (ref Rodrigue et al. 2013) was 6.3 µM. In addition, in test [6], the “affinity improvement compared to galactose” value was 6 to 7 fold.

In test [1], `O=[N+]([O-])c1ccc(O[C@@H]2O[C@H](CO)[C@H](O)[C@H](O)[C@H]2O)cc1` [pNPGal, p-nitrophenyl β-D-galactoside] returned a Kd of 54 ± 6 µM. Also, in test [1] (Kd in PrOF NMR, pNPGal vs D-Gal), the “improved binding affinity compared to D-Gal” value was 6 fold. Moreover, the “affinity improvement compared to galactose” value in test [6] is 6 to 7 fold.

As usually defined, the IC50 is the midpoint of a concentration-inhibition curve. The low end stands for inhibition by little substance, the high end for a need for much substance.

Values taken from article PMC7874386, “Protein-observed 19F NMR of LecA from Pseudomonas aeruginosa” (Glycobiology, 2020).
